The source of these data is US6849603B1, “Peptides for inhibition of apoptosis and pharmaceutical compositions containing them” (NSS T Neurosurvival Technologies Ltd., priority 1998, dated 2005).

Test [1] deals with HeLa cells. Briefly: In vitro assay system for regulation of cell death by the Bcl-2 family (Bax-induced cell death, electroporation, beta-galactosidase reporter). The class given is cell-based, Human. As to conditions: for cell viability as compared to controls: expression plasmid transfected alone by electroporation, 18 hours post-transfection. From the text:
This assay is based on transient transfection of cultured cells (e.g., HeLa cells, SH-SY5Y neuroblastoma cells. PC12, pheochromocytoma cells, 293 kidney cells, primary neuronal cells etc.), via electroporation or cationic-lipid-mediated transfection, by an expression vector, harboring a reporter gene (e.g. the gene encoding for beta-galactosidase, or the gene encoding for luciferase). Based on the consideration that gene expression requires high level of function and integrity of cellular systems, a direct correlation can be drawn between the activity of the protein encoded by the reporter gene, and the survival rates of the transfected cells. The reporter gene is co-transfected with a second expression vector, carrying either the bcl-2 or bax genes, therefore affecting the cellular apoptotic threshold towards life or death, respectively. In addition, transfection of cells with a combination of both bcl-2 and bax genes is performed, to examine the activity of each of these two proteins in opposing the death-inhibitory or promoting-effect of the other, respectively.
(§1) a. Cell cultures: • 1. HeLa cells: Human cervical carcinoma cells (HeLa) were grown in Dulbecco's modified Eagle's medium (DMEM), supplemented with 10% fetal calf serum (FCS) and 1% penicillin-streptomycin-Nystatin solution (Biological Industries, Israel), and 1% L-Glutamine solution (2 mM, biological Industries, Israel). Cells were grown in monolayer at 37° C. in 5% CO2. • 2. Kidney 293 cells (T): Human embryonic kidney 293 cells were grown in the conditions described for the HeLa cells.
b. Models of Apoptosis: • Three model systems of cell death were used: • 1. Apoptosis induced by dopamine: Exposure of cells to dopamine at 100-500 micromolar for 24 hours induces cell death characteristic of apoptosis (Ziv I, et al., Neurosci Lett 170:136-140, 1994; Offen D, et al., Biochim Biophys Acta 1268:171-177, 1995; Masserano J M, et al., Mol Pharmacol 50:1309-1315, 1996; Shirvan A, et al., J. Neurochem 69:539-549, 1997; Corona V., et al., J. Neurochem 69:1870-1881, 1997; Velez-Pardo C, et al., Pharmacol Toxicol 80:76-84, 1997; Shinkai T, et al., J Neurosci Res. 393-399, 1997; Simantov R, et al., Neuroscience 74:39-50, 1996; Gabby M, et al., Neuropharmacology 35:571-578, 1996). […] Apoptosis induced by Bax. This model utilizes an in vitro assay system for regulation of cell death by the Bcl-2 family of proteins: Cells were grown as described above in example 3a. Cells from log phase of growth were harvested using trypsin/EDTA and resuspended at a density of 5.0×10^6 cells/ml in 400 μl PBS. Cell suspension was then transferred to electroporation chambers containing a marker plasmid (pCDNA/Lac z) encoding beta-galactosidase as a reporter gene (10 μg)+a control plasmid (pCDNA), to bring total plasmid quantity to 23 micrograms+one of the following regimens: • 1. An expression plasmid, encoding Bcl-2 (0.42 μg) • 2. An expression plasmid, encoding Bax (0.42 μg). • 3. Bcl-2-encoding plasmid+Bax-encoding plasmid (0.42 μg each). • 4. Test compound, or an expression plasmid encoding for the test peptide+either Bcl-2-encoding plasmid or Bax-encoding plasmid or both. • 5. Control: only the marker plasmid.
After one minute of incubation, electroporation was performed at 1050 μF and 220 V for a duration of 10-30 ms, using an Equibio gene pulser. Cells from the cuvettes were then pooled into a complete medium with 10% FCS, and 1×10^6 cells were aliquoted into 3.5 cm plates. At 18 hours post-transfection, cell viability was assessed through measurement of beta-galactosidase activity by standard methods (Sambrook, Fritch, Maniatis, Molecular cloning; A laboratory manual, Cold Spring Harbour Laboratory Press, pp 16.66, 1989). OD values were expressed as percent of control, and statistical significance was evaluated by appropriate parametric or non-parametric statistical tests.
Methods: An expression plasmid, encoding the DIP1 (synthesized as described above in Example 2) was used. […]

The test system of test [2] is HeLa cells. Briefly: Dopamine-induced cell death in HeLa cells (beta-galactosidase reporter viability). It counts as cell-based, Human. As to conditions: 18 hours; for cell survival rate: P<0.001.
Method: (§2) Models of Apoptosis: • Three model systems of cell death were used: • 1. […] Apoptosis induced by Bax. This model utilizes an in vitro assay system for regulation of cell death by the Bcl-2 family of proteins: Cells were grown as described above in example 3a. Cells from log phase of growth were harvested using trypsin/EDTA and resuspended at a density of 5.0×10^6 cells/ml in 400 μl PBS. Cell suspension was then transferred to electroporation chambers containing a marker plasmid (pCDNA/Lac z) encoding beta-galactosidase as a reporter gene (10 μg)+a control plasmid (pCDNA), to bring total plasmid quantity to 23 micrograms+one of the following regimens: • 1. An expression plasmid, encoding Bcl-2 (0.42 μg) • 2. An expression plasmid, encoding Bax (0.42 μg). • 3. Bcl-2-encoding plasmid+Bax-encoding plasmid (0.42 μg each). • 4. Test compound, or an expression plasmid encoding for the test peptide+either Bcl-2-encoding plasmid or Bax-encoding plasmid or both. • 5. Control: only the marker plasmid.
Cell viability was then evaluated by the measurement of the beta-galactosidase activity, as specified above.
Synthetic DIP1 was introduced into HeLa cells with a beta-galactosidase reporter plasmid by electroporation. […] Cell viability was then evaluated by measurement of the beta-galactosidase activity.
The test system of test [3] is HeLa cells. Particulars: 18 hours.
Method: as §2
Cell viability was then evaluated by determining beta-galactosidase activity.
Test [4] relates to embryonic kidney 293T cells. Briefly: Cell-killing effect of Bax on embryonic kidney 293T cells (beta-galactosidase reporter). It counts as cell-based, Human. As to conditions: expression plasmids encoding Bax and DIP1, Superfect transfection, 18 hours. As for the experimental part:
as §1
Methods: Human embryonic kidney 293T cells were grown as specified in Example 3.a. Cells were co-transfected using the Superfect Transfection Kit (Quiagen), with 5 μg total DNA of the following effectors: pCDNA/Lac-z reporter plasmid and one of the following:
• 1). Expression plasmid encoding DIP1. • 2). Expression plasmid encoding Bax. • 3). Expression plasmids, encoding Bax and DIP1.
After 18 hours, the cells were harvested for beta-galactosidase activity assay.
Human embryonic kidney 293T cells were co-transfected by […] with a reporter plasmid encoding beta-galactosidase, in combination with either an expression plasmid encoding DIP1; an expression plasmid encoding Bax; or expression plasmids encoding Bax and DIP1. Cell viability was evaluated after 18 hours, by measurement of beta-galactosidase activity.

Like-named read-outs stand apart in the source and are kept apart here.

For “Bax: death-inducing Bcl-2 family protein, expressed from a transfected expression plasmid”, the cell survival rate in the test on HeLa cells [1] (Bax-encoding plasmid alone, 18 hours) came out at 37.0 ± 2.2%. For the same molecule, the “cell viability as compared to controls” value in the test with HeLa cells [1] is listed as “marked death-inducing effect”.

As to `NCCc1ccc(O)c(O)c1` [dopamine, reference compound], the figures for the cell survival in the test on HeLa cells [2] (dopamine 150 μM alone) and with HeLa cells [2] (dopamine 300 μM alone) were 30.8 ± 6.0% of control and 8.4 ± 7.0% of control, respectively.

Regarding “Bcl-2: death-inhibitory protein, expressed from a transfected expression plasmid”, the “cell-killing effect of Bax on co-transfection” value with HeLa cells [1] (co-transfection with Bax-encoding plasmid, 18 hours) is recorded as “markedly counteracted”. In addition, the “cell viability as compared to controls” value in the test with HeLa cells [1] is reported as “increases cell viability”.

As for `OO` [hydrogen peroxide, reference compound], the cell survival rate with HeLa cells [3] (hydrogen peroxide 100 μM alone, mean±SD) is given as 20.4±2.8% of control; in the test on HeLa cells [3] (hydrogen peroxide 200 μM alone, mean±SD) it was 5.8±2.1% of control.

Turning to “H-FELRYRRAF-OH [DIP1, Phe-Glu-Leu-Arg-Tyr-Arg-Arg-Ala-Phe]”, in test [4], the “counteracting Bax toxicity” value is given as “markedly active in counteracting Bax toxicity”. The cell survival rate in the test with HeLa cells [2] (synthetic DIP1 by electroporation + dopamine 150 μM) was 75.4+9.0%; in the test with HeLa cells [2] (synthetic DIP1 by electroporation + dopamine 300 μM) it was 40.2+8.0%; in the test on HeLa cells [1] (co-transfection of DIP1-encoding plasmid with Bax-encoding plasmid, 18 hours, p<0.001) it was 71.4 ± 9.4 % of control; with HeLa cells [3] (synthetic DIP1 by electroporation + hydrogen peroxide 100 μM, p<0.001) it was 53.3±8.8%; with HeLa cells [3] (synthetic DIP1 by electroporation + hydrogen peroxide 200 μM, p<0.001), 33.4±3.7%. Also, in the test with HeLa cells [1], the “cell viability as compared to controls” value is “markedly enhanced cell viability”.
